Results taken from patent US5654436A, “2-substituted benzimidazole derivatives” (American Home Products Corporation, priority 1995, dated 1997).
Where two headings read alike, the source gives them in different places.

Tested on: Porcine Smooth Muscle Cell
Assay: Inhibition of smooth muscle cell proliferation (3H-thymidine, serum or PDGF stimulated)
Format: cell-based
Settings: Sus scrofa, porcine aortic smooth muscle cells, 24-36 hours; for inhibition at 10 µM: read-out: Porcine Smooth Muscle Cell Antiproliferation % Inhibition at x Concentration, Serum
Description: The ability of the compounds of the present invention to inhibit smooth muscle cell proliferation was established using isolated porcine nortic smooth muscle cells in a modification of the procedure of Casteliot et al. J. Biol. Chem 257(19) 11256 (1982), as follows:
Fresh porcine aortas, scrupulously cleansed of fatty tissue, are rinsed in sterile phosphate-buffered saline with 2% antibiotic-antimycotic (100×) liquid ( 10,000 units of penicillin (base), 10,000 μg of streptomycin (base), and 25 μg of amphotericin B/mL utilizing penicillin G (sodium salt), streptomycin sulfate, and amphotericin B as Fungizone® in 0.85% saline, available from Gibco Laboratories, Grand Island Biological Co., Grand Island, N.Y.). The tissue is then digested in 10-15 mL of an enzyme solution containing collagerinse type I, 165 U/mL; elastase type III, 15 U/mL; BSA, 2 mg/mL; and soybean trypsin inhibitor, 0.375 mg/mL, followed by incubation at 37° C. under 5% CO2 atmosphere for 10 to 15 minutes. After this treatment, the outer surface adventitia is removed by peeling with a forceps. The aorta is then longitudinally cut and laid open and the endothelial layer is removed by scraping.
The medial layer of cells is rinsed in the enzyme solution, and placed in a new 100 mm dish with 10 mL of enzyme solution. The medial layer of cells is minced using a fine pair of scissors and digested for 2-3 hours at 37° C. in 30 mL of fresh enzyme solution. After digestion, the medial tissue is homogenized using a sterile Pasteur pipette with a fire polished tip or an Eppendorf pipetter with a 200-1000 gL sterile pipette tip. The suspension is then centrifuged for 10 minutes at 8000 rpm and the pellet is suspended in 4-6 mL of fresh enzyme solution and plated onto 4-6 100 mm flasks with vented caps. The cells are then allowed to grow to confluence and split using 0.25% trypsin. The cells are evaluated for purity and overall quality using antibody to SMC actin.
The cells are assayed in early passage (generally passage 3-7) at sub-confluent conditions. Cultures are grown in 16 mm (24 well) multi-well culture dishes in media 199 supplemented with 10% fetal bovine serum and 2% antibiotic/antimycotic. At subconfluence, the cells are placed in a defined serum free, lymphocyte medium (AIM-V; Gibeo) for 24-48 hours prior to initiating the experimental protocol.
The standard test procedure is initiated by addition of the test compound, ^3 H-thymidine and serum or a specific growth factor to the serum deprived synchronized cells. Growth factor and serum stimulations are optimized for each cell type. The test compounds are added to each well at 50 fold dilution (20 μL/well) and the plates are incubated for 24-36 hours at 37° C. in 5% CO2 atmosphere. Test compounds are dissolved in 50% ethanol and assayed at 1, 10, and 100 μM. As a control, RG 50872 (Bilder, G. A.; et al., Am. J. Cell Physiol., 1991; 260: C721) is routinely assayed under the conditions of each cell preparation at a concentration of 5 μM.
At the completion of the experiment, the plates are placed on ice, washed three times with ice cold PBS and incubated in ice cold 10% trichloroacetic acid (TCA) for 30 minutes to remove acid soluble proteins. Each solution is transferred to a scintillation vial containing 0.4N HCl (500 μL/vial to neutralize NaOH) and each well is rinsed two times with water (500 μL) for a total volume of 2 mL/vial.
Data is quantitated by subjecting the vials to a scintillation counter, in triplicate, for both control and experimental samples. Control (100%) data is obtained from maximally stimulated cells, as the result of growth factor or serum stimulation. Experimental data is obtained from cells maximally stimulated with growth factor or serum and treated with a test compound. (The platelet-derived growth factor used in the assay was human recombinant PDGF-AB purchased from Upstate Biotechnology Inc., Lake Placid, N.Y.). Data is expressed as a percent of control from which IC50 s are determined.

[1] = human recombinant PDGF-AB stimulated, read-out: Porcine Smooth Muscle Cell Antiproliferation IC50, PDGF

| Compound | IC50 [1] [nM] | inhibition at 10 µM (serum stimulated) [%] | IC50 (serum stimulated, read-out: Porcine Smooth Muscle Cell Antiproliferation IC50, Serum) [nM] |
| --- | --- | --- | --- |
| Clc1ccc(Cn2c(-c3ccccn3)nc3ccccc32)cc1Cl [Example 1, 1-(3,4-Dichiorobenzyl)-2-pyridin-2-yl-1H-benzoimidazole] | 4400 | 39.8 | – |
| COC(=O)c1ccc(Cn2c(-c3ccccn3)nc3ccccc32)cc1 [Example 2, 4-[2-(Pyridin-2-yl)-benzoimidazol-1-ylmethyl]-benzoic acid methyl ester] | 1100 | 38.4 | – |
| COC(=O)c1ccc(Cn2c(C(F)(F)F)nc3cc(C)c(C)cc32)cc1 [Example 3, 4-(5,6-Dimethyl-2-trifluoromethyl-benzoimidazol-1-ylmethyl)-benzoic acid methyl ester] | 2470 | 41.3 | – |
| CCCc1nc2cc([N+](=O)[O-])ccc2n1Cc1ccc(C(=O)OCC)cc1 [Example 4, 4-(5-Nitro-2-propyl-benzoimidazol-1-ylmethyl)-benzoic acid ethyl ester] | 760 | – | 660 |
